Source: patent US4229584A, “Ureylenebis(anionic substituted phenylene carbonyl)imino naphthalene sulfonic acids and naphthalene carboxylic acids and their salts” (American Cyanamid Company, priority 1978, dated 1980)
Counter-ions that a name gives are not always drawn. Like-named read-outs stand apart in the source and are kept apart here.

Key:
[1] = test system: late components of human complement (C3-C9); experiment: Test, Code 035 (C3-C9 inhibitor): lysis of EAC 142 by late components of human complement; assay type: cell-based; conditions: activity in wells, twofold serial dilution; higher well number indicates higher activity
Description: (§1) An active inhibitor protects C2 from C1 and C4; (ii) Test, Code 035 (C3-C9 inhibitor)--This test determines the ability of the late components of human complement (C3-C9) to lyse EAC 142 in the presence of appropriate dilutions of the test compound. An active inhibitor protects EAC 142 from lysis by human C3-C9; (iii) Test, Code 036 (C-Shunt inhibitor)--In this test human erythrocytes rendered fragile are lysed in autologous serum via the shunt pathway activated by cobra venom factor in the presence of appropriate dilutions of the test compound. Inhibition of the shunt pathway results in failure of lysis; (iv) Forssman Vasculitis Test--Here, the well known complement dependent lesion, Forssman vasculitis, is produced in guinea pigs by intradermal injection of rabbit anti-Forssman antiserum. The lesion is measured in terms of diameter, edema and hemorrhage and the extent to which a combined index of these is inhibited by prior intraperitoneal injection of the test compound at 200 mg/kg is then reported, unless otherwise stated; (v) Forssman Shock Test--Lethal shock is produced in guinea pigs by an i.v. injection of anti-Forssman antiserum and the harmonic mean death time of treated guinea pigs is compared with that of simultaneous controls; (vi) Complement Level Reduction Test--In this test, the above dosed guinea pigs, or others, are bled for serum and the complement level is determined in undiluted serum by the capillary tube method of U.S. Pat. No. 3,876,376 and compared to undosed control guinea pigs; and (vii) Cap 50 Test--Here, appropriate amounts of the test compound are added to a pool of guinea pig serum in vitro, after which the undiluted serum capillary tube assay referred to above is run. The concentration of compound inhibiting 50% is reported.
(§2) **Activity in wells, a serial dilution assay. Higher well number indicate
(§3) higher activity. The serial dilutions are twofold.

[2] = test system: shunt pathway; experiment: Test, Code 036 (C-Shunt inhibitor): lysis of human erythrocytes in autologous serum via shunt pathway activated by cobra venom factor; assay type: cell-based; conditions: activity in wells, twofold serial dilution; higher well number indicates higher activity
Description: as §1, §2, §3

[3] = molecular target: T1, human C1 (Homo sapiens, UniProt P09871); experiment: Test, Code 026 (C1 inhibitor): protection of fluid phase human C2 from activated human C1; assay type: biochemical; conditions: activity in wells, twofold serial dilution; higher well number indicates higher activity
T1 construct: substrate fluid phase human C2, in presence of C4
Description: as §1, §2, §3

[4] = test system: whole complement; experiment: In vivo complement inhibition in guinea pigs (whole complement of serum, capillary tube assay); set-up: species or system guinea pig; conditions: for change in vivo at 200 mg/kg: Cavia porcellus, ip
Description: as §1
With reference to Table I, guinea pigs weighing about 300 g were dosed intravenously (i.v.) or intraperitoneally (i.p.) with 200 mg/kg of the test compound dissolved in saline and adjusted to pH 7-8. […] The serum was tested for whole complement using the capillary tube assay. Percent inhibition was calculated by comparison with simultaneous controls. The results appear in Table I together with results of tests, Code 026, 035, 036, Cap 50, percent inhibition and Forssman shock.

[5] = test system: complement system; conditions: cited from earlier work; for anticomplementary effect: British Journal of Experimental Pathology, 33, 327-339 (1952)
[6] = The New England Journal of Medicine, 286, 808-812 (1972); cited from earlier work
[7] = 0.5 h, read-out: In Vivo Activity (Guinea Pig) % Inhibition Intraperitoneal 30 mins.
[8] = 1 h, read-out: In Vivo Activity (Guinea Pig) % Inhibition Intraperitoneal 60 mins.
[9] = 2 h, read-out: In Vivo Activity (Guinea Pig) % Inhibition Intraperitoneal 120 mins.
[10] = 0.5 h, intraperitoneal, 200 mg/kg, 30 mins., read-out: In Vivo Activity (Guinea Pig) % Inhibition Intraperitoneal 30 mins.
[11] = 1 h, intraperitoneal, 200 mg/kg, 60 mins., read-out: In Vivo Activity (Guinea Pig) % Inhibition Intraperitoneal 60 mins.
[12] = 2 h, intraperitoneal, 200 mg/kg, 120 mins., read-out: In Vivo Activity (Guinea Pig) % Inhibition Intraperitoneal 120 mins.

T1 sequence (P09871 16-688): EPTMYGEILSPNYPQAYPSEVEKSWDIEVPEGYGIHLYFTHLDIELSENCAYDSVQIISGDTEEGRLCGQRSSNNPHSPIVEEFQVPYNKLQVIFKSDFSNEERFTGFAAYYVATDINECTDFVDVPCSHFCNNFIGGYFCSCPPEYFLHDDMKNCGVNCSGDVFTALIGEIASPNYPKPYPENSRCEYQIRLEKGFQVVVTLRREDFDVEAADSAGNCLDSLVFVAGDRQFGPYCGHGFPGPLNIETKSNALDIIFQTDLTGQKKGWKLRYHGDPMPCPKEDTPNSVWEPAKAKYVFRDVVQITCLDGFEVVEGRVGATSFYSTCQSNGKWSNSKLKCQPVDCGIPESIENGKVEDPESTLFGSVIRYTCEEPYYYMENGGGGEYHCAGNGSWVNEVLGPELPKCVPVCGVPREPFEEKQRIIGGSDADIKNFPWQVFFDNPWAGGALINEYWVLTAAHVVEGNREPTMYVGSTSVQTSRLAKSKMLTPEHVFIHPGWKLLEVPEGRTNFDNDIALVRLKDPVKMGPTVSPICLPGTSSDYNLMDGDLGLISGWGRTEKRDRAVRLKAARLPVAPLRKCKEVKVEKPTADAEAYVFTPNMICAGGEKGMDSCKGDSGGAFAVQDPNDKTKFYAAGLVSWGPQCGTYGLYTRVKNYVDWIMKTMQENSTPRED
T1 sequence (P00736 18-705 partner): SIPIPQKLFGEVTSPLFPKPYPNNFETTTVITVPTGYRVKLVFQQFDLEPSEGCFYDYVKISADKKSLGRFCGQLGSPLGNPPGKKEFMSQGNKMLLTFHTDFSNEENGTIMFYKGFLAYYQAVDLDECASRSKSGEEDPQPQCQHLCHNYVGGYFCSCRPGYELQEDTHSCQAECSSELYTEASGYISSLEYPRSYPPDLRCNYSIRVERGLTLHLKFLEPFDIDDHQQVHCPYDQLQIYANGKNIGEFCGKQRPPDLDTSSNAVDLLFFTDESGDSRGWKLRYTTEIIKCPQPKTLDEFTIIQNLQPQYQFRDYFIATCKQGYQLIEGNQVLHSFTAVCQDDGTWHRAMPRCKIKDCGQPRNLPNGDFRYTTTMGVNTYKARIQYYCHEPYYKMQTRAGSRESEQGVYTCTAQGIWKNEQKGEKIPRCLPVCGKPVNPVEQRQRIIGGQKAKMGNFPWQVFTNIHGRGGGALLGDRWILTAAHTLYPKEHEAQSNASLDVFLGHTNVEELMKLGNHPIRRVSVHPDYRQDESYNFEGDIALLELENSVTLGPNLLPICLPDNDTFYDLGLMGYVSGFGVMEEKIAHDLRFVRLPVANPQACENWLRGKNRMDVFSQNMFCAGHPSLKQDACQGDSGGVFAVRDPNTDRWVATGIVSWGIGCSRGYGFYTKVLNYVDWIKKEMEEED
T1 sequence (P02745 23-245 partner): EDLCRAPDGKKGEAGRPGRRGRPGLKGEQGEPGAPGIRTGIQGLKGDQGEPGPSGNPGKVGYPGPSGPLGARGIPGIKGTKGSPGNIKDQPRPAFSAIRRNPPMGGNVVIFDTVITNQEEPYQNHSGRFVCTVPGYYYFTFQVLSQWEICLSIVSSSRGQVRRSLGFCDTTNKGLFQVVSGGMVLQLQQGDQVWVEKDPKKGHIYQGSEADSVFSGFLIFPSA
T1 sequence (P02746 28-253 partner): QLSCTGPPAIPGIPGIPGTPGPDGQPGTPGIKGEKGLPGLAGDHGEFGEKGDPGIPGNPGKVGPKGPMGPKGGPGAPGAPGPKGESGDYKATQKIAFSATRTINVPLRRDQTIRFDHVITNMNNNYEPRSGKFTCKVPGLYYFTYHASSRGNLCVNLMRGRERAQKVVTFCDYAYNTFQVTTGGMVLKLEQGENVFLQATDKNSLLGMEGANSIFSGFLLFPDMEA
T1 sequence (P02747 29-245 partner): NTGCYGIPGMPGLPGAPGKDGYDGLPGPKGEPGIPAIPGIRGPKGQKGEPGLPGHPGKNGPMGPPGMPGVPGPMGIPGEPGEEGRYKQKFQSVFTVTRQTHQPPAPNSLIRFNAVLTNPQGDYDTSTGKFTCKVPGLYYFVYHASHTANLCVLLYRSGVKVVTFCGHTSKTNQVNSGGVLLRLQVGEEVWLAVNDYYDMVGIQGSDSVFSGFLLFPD

Compound | C-Late 035* Wells [1] | Shunt Inhibition 036* Wells [2] | C1 026* Wells [3] | change in vivo at 200 mg/kg [4, 10] | change in vivo at 200 mg/kg [4, 11] | change in vivo at 200 mg/kg [4, 12] | further results
O=C(Nc1ccc(C(=O)Nc2ccc(S(=O)(=O)[O-])c3ccc(S(=O)(=O)[O-])cc23)c(S(=O)(=O)[O-])c1)Nc1ccc(C(=O)Nc2ccc(S(=O)(=O)[O-])c3ccc(S(=O)(=O)[O-])cc23)c(S(=O)(=O)[O-])c1.[Na+].[Na+].[Na+].[Na+].[Na+].[Na+] [4,4'-{Ureylenebis[(2-sulfo-4,1-phenylenecarbonyl)imino]}-di-1,6-naphthalenedisulfonic acid hexasodium salt] | N | N | +5 Wells | – | – | – | change in vivo at 200 mg/kg [4, 7]: -3%; change in vivo at 200 mg/kg [4, 8]: -4%; change in vivo at 200 mg/kg [4, 9]: 6%
O=C(Nc1ccc(C(=O)Nc2cc(S(=O)(=O)[O-])cc3ccc(S(=O)(=O)[O-])cc23)c(S(=O)(=O)[O-])c1)Nc1ccc(C(=O)Nc2cc(S(=O)(=O)[O-])cc3ccc(S(=O)(=O)[O-])cc23)c(S(=O)(=O)[O-])c1.[Na+].[Na+].[Na+].[Na+].[Na+].[Na+] [4,4'-{Ureylenebis[(2-sulfo-4,1-phenylenecarbonyl)imino]}-di-2,6-naphthalenedisulfonic acid hexasodium salt] | N | N | +5 Wells | – | – | – | change in vivo at 200 mg/kg [4, 7]: -3%; change in vivo at 200 mg/kg [4, 8]: -4%; change in vivo at 200 mg/kg [4, 9]: -11%
O=C(Nc1cc(C(=O)O)cc(C(=O)Nc2cc(S(=O)(=O)O)cc3cc(S(=O)(=O)O)cc(S(=O)(=O)O)c23)c1)Nc1cc(C(=O)O)cc(C(=O)Nc2cc(S(=O)(=O)O)cc3cc(S(=O)(=O)O)cc(S(=O)(=O)O)c23)c1 [5,5'-Ureylenebis[N-(3,6,8-trisulfo-1-naphthyl)]isophthalamic acid octasodium salt] | N | +2 Wells | +10 Wells | -37% | -42% | -48% | In Vivo Activity (Guinea Pig) % Inhibition Intravenous 2 mins. ([4]; intravenous, 200 mg/kg, 2 mins.): -92%; In Vivo Activity (Guinea Pig) % Inhibition Intravenous 30 mins. ([4]; intravenous, 200 mg/kg, 30 mins.): -44%; In Vivo Activity (Guinea Pig) % Inhibition Intravenous 120 mins. ([4]; intravenous, 200 mg/kg, 120 mins.): -39%
COC(=O)c1cc(NC(=O)Nc2cc(C(=O)Nc3ccc(S(=O)(=O)O)c4cc(S(=O)(=O)O)cc(S(=O)(=O)O)c34)cc(C(=O)OC)c2)cc(C(=O)Nc2ccc(S(=O)(=O)O)c3cc(S(=O)(=O)O)cc(S(=O)(=O)O)c23)c1 [5,5'-Ureylenebis[N-(4,6,8-trisulfo-1-naphthyl)isophthalamic acid]dimethyl ester hexasodium salt] | +1 Wells | +1 Wells | +4 Wells | -14% | -17% | -25% | –
O=C(Nc1cc(C(=O)O)cc(C(=O)Nc2ccc(S(=O)(=O)O)c3cc(S(=O)(=O)O)cc(S(=O)(=O)O)c23)c1)Nc1cc(C(=O)O)cc(C(=O)Nc2ccc(S(=O)(=O)O)c3cc(S(=O)(=O)O)cc(S(=O)(=O)O)c23)c1 [5,5'-Ureylenebis[N-(4,6,8-trisulfo-1-naphthyl)isophthalamic acid]octasodiumsalt] | +1 Wells | +2 Wells | +5 Wells | -40% | -49% | -71% | –
CC(=O)Nc1ccc2c(S(=O)(=O)O)cc(S(=O)(=O)O)cc2c1NC(=O)c1ccc(NC(=O)Nc2ccc(C(=O)Nc3c(NC(C)=O)ccc4c(S(=O)(=O)O)cc(S(=O)(=O)O)cc34)c(S(=O)(=O)O)c2)cc1S(=O)(=O)O [5,5'-[Ureylenebis(2-sulfo-1,4-phenylenecarbonylimino)]bis[6-acetamido-1,3-naphthalenedisulfonic acid]hexasodium salt] | N | +1 Wells | +8 Wells | -19% | 8% | 4% | –
O=C(Nc1ccc(C(=O)Nc2cc(S(=O)(=O)O)cc3cccc(S(=O)(=O)O)c23)c(S(=O)(=O)O)c1)Nc1ccc(C(=O)Nc2cc(S(=O)(=O)O)cc3cccc(S(=O)(=O)O)c23)c(S(=O)(=O)O)c1 [8,8'-[Ureylenebis(2-sulfo-4,1-phenylenecarbonyl)imino]di-1,6-naphthalenedisulfonic acid hexasodium salt] | +1 Wells | +1 Wells | +5 Wells | -10% | -18% | -31% | –
Cc1ccc(C(=O)Nc2ccc(S(=O)(=O)O)c3cc(S(=O)(=O)O)cc(S(=O)(=O)O)c23)cc1NC(=O)c1cccc(NC(=O)Nc2cccc(C(=O)Nc3cc(C(=O)Nc4ccc(S(=O)(=O)O)c5cc(S(=O)(=O)O)cc(S(=O)(=O)O)c45)ccc3C)c2)c1 [Suramin] | – | – | – | – | – | – | inhibition of the complement system ([5]; Clin. Exp. Immunol., 10, 127-138 (1972)): competitive inhibitor of the complement system
Nc1ccc2cc(S(=O)(=O)O)cc(O)c2c1N=Nc1ccc(NC(=O)Nc2ccc(N=Nc3c(N)ccc4cc(S(=O)(=O)O)cc(O)c34)c(S(=O)(=O)O)c2)cc1S(=O)(=O)O [chlorazol fast pink, 3,3'-ureylenebis-[6-(2-amino-8-hydroxy-6-sulfo-1-naphthylazo)]benzenesulfonic acid, tetrasodium salt] | – | – | – | – | – | – | anticomplementary effect [5]: anticomplementary effect
NCCCCCC(=O)O [epsilon-aminocaproic acid] | – | – | – | – | – | – | treatment of hereditary angioneurotic edema [6]: used with success
NC[C@H]1CC[C@H](C(=O)O)CC1 [tranexamic acid] | – | – | – | – | – | – | treatment of hereditary angioneurotic edema [6]: used with success
heparin | – | – | – | – | – | – | anticomplementary effect [5]: anticomplementary effect
